Here are results for twelve compounds from patent US5981181A, “DNA sequences with oligosaccharide transporter, plasmids bacteria and plants containing a transporter as well as a process for the preparation and transformation of yeast strains for identification of the transporter” (Hoechst Schering AgrEvo GmbH, priority 1992, dated 1999).

Assay [1] has as its target T1, sucrose transporter from spinach (Spinacia oleracea, UniProt Q03411).
T1 construct: which contain, as inserts, the cDNA for the sucrose transporter from spinach; expressed in transfected cells; host or cells: Saccharomyces cerevisiae YSH2.64-1A suc- with integrated potato sucrose synthase (susy), transformed with YEplac112A1NE-S21
T1 sequence (Q03411 1-525): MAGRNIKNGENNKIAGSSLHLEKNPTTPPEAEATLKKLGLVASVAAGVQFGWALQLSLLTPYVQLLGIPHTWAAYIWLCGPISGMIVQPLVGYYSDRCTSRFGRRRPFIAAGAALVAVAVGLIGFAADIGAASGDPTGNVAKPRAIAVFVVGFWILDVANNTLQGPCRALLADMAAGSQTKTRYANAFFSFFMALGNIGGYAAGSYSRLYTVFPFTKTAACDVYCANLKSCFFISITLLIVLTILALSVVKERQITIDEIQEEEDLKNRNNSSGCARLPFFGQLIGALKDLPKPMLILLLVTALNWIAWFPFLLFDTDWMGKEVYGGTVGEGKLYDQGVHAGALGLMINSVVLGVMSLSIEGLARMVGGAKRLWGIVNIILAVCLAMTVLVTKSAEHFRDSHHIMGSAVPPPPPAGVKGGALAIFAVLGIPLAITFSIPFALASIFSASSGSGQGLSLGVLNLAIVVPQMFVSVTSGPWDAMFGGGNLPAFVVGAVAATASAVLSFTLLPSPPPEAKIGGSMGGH
In words: Competition experiment with various sugars as competitor for the labelled sucrose in yeast YEplac112A1NE-S21. Particulars: in relation to YEplac112A1NE-S21 control = 100; for activity at 2000 µM: 2mM competitor; for activity at 2000 µM / activity at 10000 µM: read-out: sucrose transport (%). The class given is cell-based. How it is done:
The yeast transformand YEplac112A1NE-S21, corresponding to that obtained in Example 2, was grown in liquid medium until the culture had reached the logarithmic phase. After centrifuging the culture, the cells were subjected to a pre-incubation for 5 minutes in a glucose containing medium and then taken up in a medium containing ^14 C-labelled sucrose. The uptake of the labelled sucrose was measured by the process described by Cirillo (1989, Meth Enzymol 174: 617-622). The uptake of the labelled sucrose without preincubation with glucose was compared with that with co-incubation with the inhibitors carbonyl cyanide m-chlorophenylhydrazone(CCCP), p-chloromercuribenzenesulfonic acid (PCMBS) and antimycin. The calculated reduction of the sucrose uptake by the inhibitors is shown in table I. A competition experiment with various sugars as competitor for the labelled sucrose, from which the specificity of the transporter can be read off, is shown in table II.

In assay [2] the target is T1, sucrose transporter from spinach. Nature of the assay: cell-based. How it is done: Time pattern of the uptake of sucrose in yeast cells. "pmol/mg cells"=amount of the ^14 C-labelled sucrose in pmol taken up in relation to the moisture weight of the yeast cells per mg; "112"=starting strain (without transporter); "+Glucose"=pre-incubation of the cells in a medium of 10 mM glucose; "-Glucose"=no pre-incubation of the cells; […], carbonyl cyanide m-chlorophenylhydrazone (CCCP) in a concentration of 2.5 μM; […] p-chloromercuribenzenesulfonicacid (PCMBS) in a concentration of 500 μM; […] antimycin in a concentration of 10 μM.
After centrifuging the culture, the cells were subjected to a pre-incubation for 5 minutes in a glucose containing medium and then taken up in a medium containing ^14 C-labelled sucrose. The uptake of the labelled sucrose was measured by the process described by Cirillo (1989, Meth Enzymol 174: 617-622). The uptake of the labelled sucrose without preincubation with glucose was compared with that with co-incubation with the inhibitors carbonyl cyanide m-chlorophenylhydrazone(CCCP), p-chloromercuribenzenesulfonic acid (PCMBS) and antimycin.

For assay [3], the system named is sucrose transport through the membrane. To be noted: plasma membranes; Slone & Buckhout, 1991; cited from earlier work.
Where [4] appears, read: read-out: sucrose transport (%).

As to `O=C(CCc1ccc(O)cc1)c1c(O)cc(O)cc1O[C@@H]1O[C@H](CO)[C@@H](O)[C@H](O)[C@H]1O` [phloridzin], the activity at 2000 µM in assay [1] was determined as 16%.
On the same count and under the same terms, then `OC[C@H]1O[C@@H](O[C@H]2[C@H](O)[C@@H](O)C(O)O[C@@H]2CO)[C@H](O)[C@@H](O)[C@H]1O` (some centres unmarked) [lactose], with 91%.
For the compound `O=S(=O)(O)c1cc[c]([Hg][Cl])cc1` [PCMBS, p-chloromercuribenzenesulfonic acid], the “sucrose transport (%)” value in assay [2] (25μM inhibitor, in relation to YEplac112A1NE-S21 control = 100) worked out at 73%; in assay [2] (100μM inhibitor, in relation to YEplac112A1NE-S21 control = 100), 21%.
Turning to `OC[C@H]1O[C@@](CO)(O[C@H]2O[C@H](CO)[C@@H](O)[C@H](O)[C@H]2O)[C@@H](O)[C@@H]1O` [sucrose], the activity at 2000 µM in assay [1] was determined as 28%. The Km (commonly the concentration of substrate that gives half-maximal velocity) in assay [3] was roughly 1000 µM.
On to `O=[N+]([O-])c1ccc(O)c([N+](=O)[O-])c1` [2,4-DNP, 2,4dinitrophenol], for which, in assay [2] (setting [4]), the activity at 25 µM was determined as 61% and the activity at 100 µM is 9%.
Consider `N#CC(C#N)=NNc1cccc(Cl)c1` [CCCP, carbonyl cyanide m-chlorophenylhydrazone], for which, in assay [2] (0.5μM inhibitor, in relation to YEplac112A1NE-S21 control = 100, read-out: sucrose transport (%)), the activity at 0.5 µM came to 65%. For the same compound, the activity at 2.5 µM in assay [2] (2.5μM inhibitor, in relation to YEplac112A1NE-S21 control = 100, read-out: sucrose transport (%)) came out at 21%.
With `O=[As]([O-])([O-])O.[Na+].[Na+]` [sodium arsenate], in assay [2] (1mM inhibitor, in relation to YEplac112A1NE-S21 control = 100), the “sucrose transport (%)” value worked out at 34%.
antimycin A: the “sucrose transport (%)” value in assay [2] (10μM inhibitor, in relation to YEplac112A1NE-S21 control = 100) came to 59%.
Turning to `OC[C@H]1O[C@H](O[C@H]2[C@H](O)[C@@H](O)[C@H](O)O[C@@H]2CO)[C@H](O)[C@@H](O)[C@@H]1O` [maltose], the activity at 2000 µM in assay [1] came out at 58%. In assay [1] (10mM competitor), the activity at 10000 µM stood at 37%.
On to `OC[C@H]1O[C@H](OC[C@H]2OC(O)(CO)[C@@H](O)[C@@H]2O)[C@H](O)[C@@H](O)[C@@H]1O` (some centres unmarked) [palatinose], for which the “sucrose transport (%)” value in assay [1] (10mM competitor) was 102%.
As for `OC[C@H]1O[C@H](O[C@H]2O[C@H](CO)[C@@H](O)[C@H](O)[C@H]2O)[C@H](O)[C@@H](O)[C@@H]1O` [trehalose], the activity at 10000 µM in assay [1] (10mM competitor) worked out at 103%.
As for `OC[C@H]1OC(Oc2ccccc2)[C@H](O)[C@@H](O)[C@@H]1O` (some centres unmarked) [phenylglucoside], the activity at 2000 µM in assay [1] worked out at 7%.
